Results published in patent publication US6271342A, “Sugar-modified cytostatics” (Bayer Aktiengesellschaft, priority 1995, dated 2001).
Structures can show the parent of a compound that is named as a salt.

How the values were obtained:
Assay in all cases: Growth inhibition test (MTT) for cytotoxic properties
Conditions in all cases: Table 1b
HT 29 = type: cell-based, human
Outline: (§1)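 SW 480 and HT 29 cells in RPMI 1640 with 10% FCS were seeded at 50,000 cells/ml, grown 1 day at 37 °C, then exposed to compound added in DMSO. MTT (5 mg/ml stock) was applied after day 3 and day 6 for 5 h, and formazan absorbance was read at 540 nm. IC50 values reported.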

SW 480 = type: cell-based, human
Outline: as §1

B 16 F 10 = type: cell-based, mouse
Experimental: Growth Inhibition Test for Determination of the Cytotoxic Properties of Glycoconjugates of Batracyline and of Quinolone-a
The human colon cell lines SW 480 and HT 29 (ATCC no. CCL 228 and HBT-38) and the mouse melanoma cell line B 16 F 10 were cultured in Roux dishes in RPMI 1640 medium with addition of 10% FCS. The cultures were then trypsinized and taken up in RPMI plus 10% FCS to a cell count of 50,000 cells/ml. 100 μl of cell suspension/well were introduced into a 96 microwell plate and incubated for 1 day at 37° C. in a CO2 incubating cabinet. A further 100 μl of RPMI medium and 1 μl of dimethyl sulphoxide with the test substances were then added. The growth was checked after day 3 and day 6. 40 μl of MTT solution (3-(4,5-dimethylthiazol-2-yl)-2,5-diphenyltetrazoline bromide) with an initial concentration of 5 mg/ml of H2 O were added to each microwave. The plate was incubated for 5 hours in a CO2 incubating cabinet at 37° C. The medium was then sucked off and 100 μl of i-propanol/well were added. After shaking for 30 minutes with 100 μl of H2 O, the extinction was measured at 540 nm with a Titertek Multiskan MCC/340 (Flow).

CO[C@H]1[C@H](O)[C@H](Oc2ccc(NC(=S)NCCCC[C@@H](NC(=S)Nc3ccc(O[C@@H]4O[C@@H](C)[C@@H](O)[C@@H](OC)[C@@H]4O)cc3)C(=O)NC3C=CCC4CN(c5c(F)cc6c(=O)c(C(=O)O)cn(C7CC7)c6c5Cl)CC43)cc2)O[C@@H](C)[C@H]1O (stereo partly drawn) [Example 11.10, N-{N^α,N^ε -Bis-[O-(3-O-methyl-α-L-fucosyl)-4hydroxy-phenylamino-thiocarbonyl]-D-lysyl}-quinolone-a]
IC50 (HT 29): 20 µM
IC50 (SW 480): 8 µM
IC50 (B 16 F 10): 2 µM

CO[C@H]1[C@@H](O)[C@@H](CO)O[C@@H](Oc2ccc(NC(=S)NCCCC[C@@H](NC(=S)Nc3ccc(O[C@@H]4O[C@H](CO)[C@H](O)[C@H](OC)[C@H]4O)cc3)C(=O)NC3C=CCC4CN(c5c(F)cc6c(=O)c(C(=O)O)cn(C7CC7)c6c5Cl)CC43)cc2)[C@@H]1O (stereo partly drawn) [Example 11.16, N-{N^α,N^ε -Bis-[O-(3-O-methyl-β-D-galactopyranosyl)-4-hydroxy-phenylamino-thiocarbonyl]-D-lysyl}-quinolone, sodium salt]
IC50 (HT 29): 10 µM
IC50 (SW 480): 10 µM
IC50 (B 16 F 10): 1.5 µM

CO[C@@H]1[C@H](O)[C@@H](Oc2ccc(NC(=S)NCCCC[C@@H](NC(=S)Nc3ccc(O[C@H]4O[C@H](CO)[C@@H](O)[C@H](OC)[C@@H]4O)cc3)C(=O)NC3C=CCC4CN(c5c(F)cc6c(=O)c(C(=O)O)cn(C7CC7)c6c5Cl)CC43)cc2)O[C@H](CO)[C@H]1O (stereo partly drawn) [Example 11.17, N-{N^α,N^ε -Bis-[O-(3-O-methyl-α-D-mannopyranosyl)-4-hydroxy-phenylamino-thiocarbonyl]-D-lysyl}-quinolone-a, sodium salt]
IC50 (HT 29): 75 µM
IC50 (SW 480): 75 µM
IC50 (B 16 F 10): 8 µM

CO[C@H]1[C@@H](O)[C@@H](CO)O[C@@H](O[C@H]2[C@H](O)[C@@H](O)[C@H](Oc3ccc(NC(=S)NCCCC[C@@H](NC(=S)Nc4ccc(O[C@@H]5O[C@H](CO)[C@@H](O[C@@H]6O[C@H](CO)[C@H](O)[C@H](OC)[C@H]6O)[C@H](O)[C@H]5O)cc4)C(=O)NC4C=CCC5CN(c6c(F)cc7c(=O)c(C(=O)O)cn(C8CC8)c7c6Cl)CC54)cc3)O[C@@H]2CO)[C@@H]1O (stereo partly drawn) [Example 11.18, N-{N^α,N^ε -Bis-[O-(4-O-(3'-O-methyl-β-D-galactopyranosyl)-β-D-glucopyranosyl)-4-hydroxy-phenylamino-thiocarbonyl]-D-lysyl}-quinolone-a, sodium salt]
IC50 (HT 29): 3.5 µM
IC50 (SW 480): 4.5 µM
IC50 (B 16 F 10): 0.5 µM

CC(NC(=O)C(CCCCN)NC(=S)Nc1ccc(OC2OC(C)C(O)C(OCC(=O)O)C2O)cc1)C(=O)NC1C=CCC2CN(c3c(F)cc4c(=O)c(C(=O)O)cn(C5CC5)c4c3Cl)CC21 [Example 12.7, N-{N^α -[O-(3-O-Carboxymethyl-β-L-fucosyl)-4-hydroxy-phenylamino-thiocarbonyl]-lysyl-D-alanyl}-quinolone-a]
IC50 (HT 29): > 250 µM
IC50 (SW 480): 60 µM
IC50 (B 16 F 10): 20 µM

COC[C@H]1O[C@@H](Oc2ccc(NC(=S)N[C@@H](CCCCN)C(=O)NC3C=CCC4CN(c5c(F)cc6c(=O)c(C(=O)O)cn(C7CC7)c6c5Cl)CC43)cc2)[C@H](O)[C@@H](OC)[C@H]1O (stereo partly drawn) [Example 12.9, N-{N^α -[O-(3,6-Di-O-methyl-β-D-galactopyranosyl)-4-hydroxy-phenylamino-thiocarbonyl]-lysyl}-quinolone-a, hydrochloride]
IC50 (HT 29): 8 µM
IC50 (SW 480): 4 µM
IC50 (B 16 F 10): 2 µM

CO[C@@H]1[C@H](O)[C@@H](Oc2ccc(NC(=S)N[C@@H](CCCCN)C(=O)NC3C=CCC4CN(c5c(F)cc6c(=O)c(C(=O)O)cn(C7CC7)c6c5Cl)CC43)cc2)O[C@H](CO)[C@H]1O (stereo partly drawn) [Example 12.10, N-{N^α -[O-(3-O-Methyl-α-D-mannopyranosyl)-4-hydroxy-phenylamino-thio-carbonyl]-lysyl}-quinolone-a, hydrochloride]
IC50 (HT 29): 15 µM
IC50 (SW 480): 15 µM
IC50 (B 16 F 10): 4 µM

COC1C(O)C(CO)OC(OC2C(CO)OC(Oc3ccc(NC(=S)NC(CCCCN)C(=O)NC4C=CCC5CN(c6c(F)cc7c(=O)c(C(=O)O)cn(C8CC8)c7c6Cl)CC54)cc3)C(O)C2O)C1O [Example 12.11, N-{N^α -[O-(4-O-(3'-O-Methyl-β-D-galactopyranosyl)-β-D-glucopyranosyl)-4-hydroxy-phenylamino-thiocarbonyl]-lysyl}-quinolone-a hydrochloride]
IC50 (HT 29): 2 µM
IC50 (SW 480): 2 µM
IC50 (B 16 F 10): 0.5 µM

COC1C(O)C(C)OC(Oc2ccc(NC(=S)NC3C=CCC4CN(c5c(F)cc6c(=O)c(C(=O)O)cn(C7CC7)c6c5Cl)CC43)cc2)C1O [Example 12.13, N-[O-(3-O-Methyl-β-L-fucosyl)-4-hydroxy-phenylamino-thiocarbonyl]-quin olone-a]
IC50 (HT 29): 100 µM
IC50 (SW 480): 35 µM
IC50 (B 16 F 10): 1 µM

COC1C(O)C(C)OC(Oc2ccc(NC(=S)NC(CN)C(=O)NC3C=CCC4CN(c5c(F)cc6c(=O)c(C(=O)O)cn(C7CC7)c6c5Cl)CC43)cc2)C1O [Example 12.15, N-{N^α -[O-(3-O-Methyl-β-L-fucosyl)-4-hydroxy-phenylamino-thiocarbonyl]-diamino-propionoyl)-quinolone-a, hydrochloride]
IC50 (HT 29): 1 µM
IC50 (SW 480): 0.3 µM
IC50 (B 16 F 10): 0.1 µM

COC1C(O)C(C)OC(Oc2ccc(NC(=S)NC(C)C(=O)NC(Cc3ccc(N(CCCl)CCCl)cc3)C(=O)O)cc2)C1O (stereo not drawn) [Example 16.1]
IC50 (HT 29): 100 µM
IC50 (SW 480): 50 µM
IC50 (B 16 F 10): 200 µM

COC1C(O)C(C)OC(Oc2ccc(NC(=S)NC(C)C(=O)NC(C)C(=O)NC(Cc3ccc(N(CCCl)CCCl)cc3)C(=O)O)cc2)C1O [Example 16.2, N-{N'-[O-(3-O-Methyl-β-L-fucopyranosyl)-4-hydroxy-phenylamino-thiocarbonyl]-alanyl-alanyl}-melphalan]
IC50 (HT 29): 60 µM
IC50 (SW 480): 50 µM
IC50 (B 16 F 10): 80 µM

COc1cccc2c1C(=O)c1c(O)c3c(c(O)c1C2=O)CC(O)(C(=O)CO)CC3OC1CC(NC(=O)C(C)NC(=O)C(C)NC(=S)Nc2ccc(OC3OC(C)C(O)C(OC)C3O)cc2)C(O)C(C)O1 [Example 17.1, N-{N'-[O-(3--Methyl-β-L-fucopyranosyl)-4-hydroxy-phenylamino-thiocarbonyl]-alanyl-alanyl}-doxorubicin]
IC50 (HT 29): 5 µM
IC50 (SW 480): 10 µM
IC50 (B 16 F 10): 5 µM

COc1cccc2c1C(=O)c1c(O)c3c(c(O)c1C2=O)CC(O)(C(=O)CO)CC3OC1CC(NC(=O)C(C)NC(=O)C(CCCCNC(=S)Nc2ccc(OC3OC(C)C(O)C(OC)C3O)cc2)NC(=S)Nc2ccc(OC3OC(C)C(O)C(OC)C3O)cc2)C(O)C(C)O1 [Example 17.2, N-{N^α,N^ε -Bis-[O-(3-O-methyl-β-L-fuccopyranosyl)-4-hydroxy-phenylamino-thiocarbonyl]-D-lysyl-alanyl}-doxorubicin]
IC50 (HT 29): 4 µM
IC50 (SW 480): 4 µM
IC50 (B 16 F 10): 4 µM

CCC1(OC(=O)C(C)NC(=O)C(CCCCNC(=S)Nc2ccc(OC3OC(C)C(O)C(OC)C3O)cc2)NC(=S)Nc2ccc(OC3OC(C)C(O)C(OC)C3O)cc2)C(=O)OCc2c1cc1n(c2=O)Cc2cc3ccccc3nc2-1 [Example 18.1, 20-O-{N^α,N^ε -Bis-[O-(3-O-methyl-β-L-fucopyranosyl)-4-hydroxy-phenylamino-thiocarbonyl]-lysyl-alanyl}-camptothecin]
IC50 (HT 29): 0.01 µM
IC50 (SW 480): 0.03 µM
IC50 (B 16 F 10): 0.2 µM

CCC1(OC(=O)C(C)NC(=O)C(CCCCN)NC(=S)Nc2ccc(OC3OC(C)C(O)C(OCC(=O)O)C3O)cc2)C(=O)OCc2c1cc1n(c2=O)Cc2cc3ccccc3nc2-1 (stereo not drawn) [Example 18.2, 20-O-{N^α -[O-(3-O-Carboxymethyl-β-fucopyranosyl)-4hydroxy-phenylamino-thiocarbonyl]-lysyl-alanyl}-camptothecin]
IC50 (HT 29): 0.02 µM
IC50 (SW 480): 0.02 µM
IC50 (B 16 F 10): 0.2 µM

CCC1(OC(=O)C(C)NC(=O)C(CCCCNC(=S)Nc2ccc(OC3OC(C)C(O)C(OC)C3O)cc2)NC(=S)Nc2ccc(OC3OC(C)C(O)C(OC)C3O)cc2)C(=O)OCc2c1cc1n(c2=O)Cc2cc3ccccc3nc2-1 [Example 18.4, 20-O-{N^α,N^ε -Bis-[O-(3-O-methyl-β-L-fucopyranosyl)-4-hydroxy-phenylamino-thiocarbonyl]-lysyl-D-alanyl}-camptothecin]
IC50 (HT 29): 0.02 µM
IC50 (SW 480): 0.02 µM
IC50 (B 16 F 10): 0.3 µM

CCC1(OC(=O)C(NC(=O)C(CCCCNC(=S)Nc2ccc(OC3OC(C)C(O)C(OC)C3O)cc2)NC(=S)Nc2ccc(OC3OC(C)C(O)C(OC)C3O)cc2)C(C)C)C(=O)OCc2c1cc1n(c2=O)Cc2cc3ccccc3nc2-1 [Example 18.5, 20-O-{N^α,N^ε -Bis-[O-(3-O-methyl-β-L-fucopyranosyl)-4-hydroxy-phenylamino-thiocarbonyl]-lysyl-valinyl}-camptothecin]
IC50 (HT 29): 0.2 µM
IC50 (SW 480): 0.2 µM
IC50 (B 16 F 10): 1 µM

CCC1(OC(=O)[C@@H](NC(=O)[C@H](CCCCN)NC(=S)Nc2ccc(O[C@H]3O[C@@H](C)[C@@H](O)[C@@H](OCC(=O)O)[C@@H]3O)cc2)C(C)C)C(=O)OCc2c1cc1n(c2=O)Cc2cc3ccccc3nc2-1 (stereo partly drawn) [Example 18.9, 20-O-{N^α [O-(3-O-Carboxymethyl-β-L-fucopyranosyl)-4-hydroxy-phenylamino-thiocarbonyl]-lysyl-valinyl}-camptothecin, hydrochloride]
IC50 (HT 29): 0.06 µM
IC50 (SW 480): 0.08 µM
IC50 (B 16 F 10): 0.7 µM
